Here are results for one molecule from US10874600B2, “Method for degrading bilirubin in skin” (The Procter & Gamble Company, priority 2018, dated 2020).

A short description of this test: Bilirubin degradation assay. In kind it is biochemical. To be noted: for Avg. IB at pH 3.8 / Avg. IB at pH 7.4: 25 μg/mL IB, 24-hr incubation at room temperature, average of triplicate; for Δ IB (actual): pH 3.8 vs reference value (pH 7.4, 0% niacinamide leg); for Δ IB (predicted): predicted additive effect of niacinamide at pH 7.4 plus observed pH effect 2.323. The procedure:
The bilirubin degradation assay provides an in vitro method of determining how a material or composition affects bilirubin degradation. Three replicates of each test sample are prepared in a 96-well plate (e.g., a FALCON brand 96-well tissue culture plate or equivalent) at a total volume of 250 μl/well. A stock of 250 ug/ml indirect bilirubin (i.e., the unconjugated form of bilirubin most commonly found in blood serum) is made by dissolving bilirubin powder (Cayman Chemicals Company, Catalog #17161) in DMSO (Sigma, Catalog # D8414-100 ml) to yield a stock solution at 10× working concentration. Working concentration of bilirubin is set at 25 ug/ml for every well except negative/vehicle control wells. […] The positive control wells may be prepared by mixing 25 ul of 250 ug/ml bilirubin stock solution and 225 ul PBS (AccuGENE, Catalog #51225). For negative/vehicle control wells, 25 ul DMSO is used in place of bilirubin. Test sample wells contain 25 ul of 250 ug/ml bilirubin stock solution, 200 ul PBS and 25 ul of each treatment solution made as 10× concentrate stock, e.g., for 0.1% Niacinamide treatment, a 10× concentrate stock is made at 1%.
The pH of each sample is adjusted using 1M HCl pH titration is performed separately before the experiment set up to determine how much 1M HCl is needed for each leg to achieve targeting pH level. 1500 ul of a master working solution of each testing leg was made without bilirubin to accommodate threshold volume need for pH adjustment. The master solution for the vehicle control wells contain 150 ul DMSO and 1350 ul of a mixture of 1M HCl and PBS. […] Bilirubin is unstable when exposed to ambient light. Thus, for bilirubin positive control well pre-titration, DMSO was used as surrogate for bilirubin. […] For pre-titration test sample wells, 1500 ul of master solution is made by mixing 150 ul DMSO (surrogate for bilirubin stock), 150 ul 10× treatment stock, and a 1200 ul mixture of 1M HCl and PBS. For actual experimental set up, make: 1350 ul pre-mix in triplicate for each leg, less either DMSO (for vehicle control leg) or bilirubin (for positive control and treatment legs) but with matching volume of all other ingredients as determined by pre-titration. Then for vehicle control leg, add 25 ul DMSO per well followed by adding in 225 ul of the pre-mix. For all other legs, add 25 ul of 250 ug/ml bilirubin stock made in DMSO per well followed by adding in 225 ul of corresponding pre-mix. […] The plate(s) containing the test samples are covered with aluminum foil and placed on top of a microplate shaker (VWR, Catalog #12620-938). Incubation was carried out at room temperature for 24-hr with constant shaking at 150 rpm. […] Commercially available bilirubin quantification kit (Cell Biolab, Catalog # MET-5010) was used for bilirubin quantification. The assay is based on the Jendrassik-Grof method in which diazotized sulfanilic acid reacts with bilirubin to form azobilirubin, the latter of which can be detected at an OD of 540 nm. A standard bilirubin curve is generated using the same bilirubin used for treatment and quantified.
Bilirubin concentrations of all testing legs are calculated using linear regression against the standard bilirubin curve. Resulting bilirubin concentrations are compared to neutral pH bilirubin reference leg. The difference in bilirubin quantification (A bilirubin) between the neutral-pH bilirubin reference leg and the low-pH niacinamide treated legs can be analyzed for predicted effect and actual effect.
The effect of niacinamide level on bilirubin degradation was tested at 0.1%, 0.5%, and 3%, by weight, based on the volume of the composition (w/v). A vehicle control is used in this Example as the negative control.

In the case of `NC(=O)c1cccnc1` [niacinamide], where the note is “0.1% (w/v) niacinamide”, the “Avg. IB at pH 3.8” value came out at 17.713 μg/mL, the “Avg. IB at pH 7.4” value was found to be 20.851 μg/mL, the “Δ IB (actual)” value came to 3.405 and the “Δ IB (predicted)” value is reported as 2.590. For the setting “0.5% (w/v) niacinamide”, the “Avg. IB at pH 3.8” value was 14.231 μg/mL, the “Avg. IB at pH 7.4” value is on record as 20.185 μg/mL, the “Δ IB (actual)” value turned out to be 6.887 and the “Δ IB (predicted)” value was 3.256. For the setting “3% (w/v) niacinamide”, the “Avg. IB at pH 3.8” value came to 9.585 μg/mL, the “Avg. IB at pH 7.4” value is 17.087 μg/mL, the “Δ IB (actual)” value is on record as 11.533 and the “Δ IB (predicted)” value is given as 6.354. For the same molecule, the “reduction in bilirubin in the low-pH composition compared with predicted” value (niacinamide in low-pH composition vs observed individual effects of pH and niacinamide level) is on record as “much higher level than predicted”.
